According to ChEMBL document CHEMBL3608219, “New geranylated flavanones from the fruits of Paulownia catalpifolia Gong Tong with their anti-proliferative activity on lung cancer cells A549” (Bioorg Med Chem Lett, 2015):
pIC50: −log10 of the molar value.

Tests used:
[1] = tested on: A549; assay: Antiproliferative activity against human A549 cells by MTT assay; type: functional, cell-based
[2] = tested on: A549; assay: Cell cycle arrest in human A549 cells assessed as accumulation at G2/M phase at 10 uM after 24 hrs by flow cytometry analysis (reference value: 14.18 +/- 1.03%); type: functional
[3] = tested on: A549; assay: Cell cycle arrest in human A549 cells assessed as accumulation at G1 phase at 10 uM after 24 hrs by flow cytometry analysis (reference value: 68.78 +/- 2.43%); type: functional
[4] = tested on: A549; assay: Cell cycle arrest in human A549 cells assessed as accumulation at S phase at 10 uM after 24 hrs by flow cytometry analysis (reference value: 16.23 +/- 1.73%); type: functional

SMILES | pIC50 [1] | Activity [2] | Activity [3] | Activity [4]
COc1cc(C2CC(=O)c3c(cc(O)c(C/C=C(\C)CCCC(C)(C)O)c3O)O2)cc(O)c1O (configuration not stated) | 4.66 | – | – | –
C=C1C(=O)[C@]23[C@H](O)[C@H]1CC[C@H]2[C@@]12CO[C@]3(O)[C@@H](O)[C@@H]1C(C)(C)CC[C@@H]2O [ORIDONIN] | 4.73 | – | – | –
CC(C)=CCC/C(C)=C\Cc1c(O)c(-c2c(O)c(C/C=C(/C)CCC=C(C)C)c3c(c2O)C(=O)CC(c2ccc(O)c(O)c2)O3)c(O)c2c1OC(c1ccc(O)c(O)c1)CC2=O (configuration not stated) | 5.05 | 5.05% | 88.88% | 5.05%
COc1cc(C2CC(=O)c3c(O)cc(O)c(C/C=C(\C)CCCC(C)(C)O)c3O2)cc(O)c1O (configuration not stated) | 4.63 | – | – | –
